# Data published in US20230146233A1, “A CLASS OF POLYCYCLIC COMPOUNDS INHIBITING RNA HELICASE DHX33 AND THE APPLICATION THEREOF” (Shenzhen KeYe Life Technologies, Co., Ltd, priority 2020, published 2023).
# Tested on: U251-MG cells
# Experiment: Half-maximal cell-inhibitory concentration on U251-MG cells (CCK-8)
# Type: cell-based
# Conditions: Homo sapiens, U-251, U251-MG cells (DHX33-overexpressing cancer cell strain), 48 hours, read-out: IC50 (half-maximal inhibitory concentrations of compounds on U251-MG cells)
# Protocol: U251-MG cells were purchased from the cell bank of the Chinese Academy of Sciences. Cells were cultured in MEM medium containing 10% fetal bovine serum (FBS), 2 mM L-glutammie, streptomycmn and penicillin. The growth conditions were set as follows: a humidified cell incubator (37° C., 5% CO2). Cells were passaged every 3 days and were discarded after 10 passages.
# U251-MG cells (a […]-overexpressing cancer cell strain) were seeded on a 96-well plate at 1×10^4 cells/100 μl/well. After the cells were completely attached, the compounds were added to the cell culture medium at a concentration of 5 nM, 10 nM, 25 nM, 50 nM, 100 nM, […], 500 nM, 1000 nM, 2000 nM, […] or 20 μM, and the resulting mixture was uniformly mixed with a multichannel pipette. After the cells were incubated with the compound for 48 hours, CCK-8 reagent (Yeasen Biotechnology (Shanghai) Co., Ltd.) was added to the medium in the 96-well plate in accordance with the standard procedure. After being incubated for 2 hours, the plate was read with a microplate reader (OD=450 nm). The experiment was repeated three times, the inhibition curve of the compound at different concentrations was plotted, and the half-maximal inhibitory concentration (IC50) of the compound was calculated.
row,IC50 [µM],Compound
1,1 to 5,COc1nccc2nc(/C(C#N)=C/c3cc(C)n(-c4sc(C)c(C)c4C#N)c3C)[nH]c12 [AB24309]
2,0.1 to 1,"COc1cc2nc(/C(C#N)=C/c3cc(C)n(-c4sc(C)cc4C#N)c3C)n(C)c2cn1 [AB24352, (E)-2-(3-(2-cyano-2-(6-methoxy-3-methyl-3H-imidazo[4,5-c]pyridin-2-yl)vinyl)-2,5-dimethyl-1H-pyrrol-1-yl)-5-methylthiophene-3-carbonitrile]"
3,5 to 20,Cc1cc(/C=C(\C#N)c2nc3ccccc3[nH]2)c(C)n1-c1csc(C#N)c1 [AB24276]
4,< 0.1,"COc1cc2nc(/C(C#N)=C/c3cc(C)n(-c4sc(C)nc4C#N)c3C)[nH]c2cn1 [AB24348, (E)-5-(3-(2-cyano-2-(6-methoxy-3H-imidazo[4,5-c]pyridin-2-yl)vinyl)-2,5-dimethyl-1H-pyrrol-1-yl)-2-methylthiazole-4-carbonitrile]"
5,1 to 5,COc1cc2nc(/C(C#N)=C/c3cc(C)n(-c4sc(-c5ccncc5)cc4C#N)c3C)[nH]c2cn1 [AB24338]
6,0.1 to 1,"COc1cnc2[nH]c(/C(C#N)=C/c3cc(C)n(-c4sc(C)c(C)c4C#N)c3C)nc2c1 [AB24301, (E)-2-(3-(2-cyano-2-(6-methoxy-3H-imidazo[4,5-b]pyridin-2-yl)vinyl)-2,5-dimethyl-1H-pyrrol-1-yl)-4,5-dimethylthiophene-3-carbonitrile]"
7,5 to 20,Cc1cc(/C=C(\C#N)c2nc3ccccc3[nH]2)c(C)n1-c1ccccn1 [AB24258]
8,0.1 to 1,COc1cc2nc(/C(C#N)=C/c3cc(C)n(-c4sc(C)nc4C)c3C)[nH]c2cn1 [AB24319]
9,0.1 to 1,"COc1ccc2nc(NC(=O)c3cc(C)n(-c4sc(C)nc4C)c3C)[nH]c2c1 [AB29505, 1-(2,4-dimethylthiazol-5-yl)-N-(6-methoxy-1H-benzo[d]imidazol-2-yl)-2,5-dimethyl-1H-pyrrole-3-carboxamide]"
10,5 to 20,"Cc1oc(-n2c(C)cc(/C=C(\C#N)c3nc4ccc([N+](=O)[O-])cc4[nH]3)c2C)c(C#N)c1C [AB24217, (E)-2-(3-(2-cyano-2-(6-nitro-1H-benzo[d]imidazol-2-yl)vinyl)-2,5-dimethyl-1H-pyrrol-1-yl)-4,5-dimethylfuran-3-carbonitrile]"
11,< 0.1,"Cc1cc(C#N)c(-n2c(C)cc(/C=C(\C#N)c3nc4cc(N(C)C)ncc4[nH]3)c2C)s1 [AB24355, (E)-2-(3-(2-cyano-2-(6-(dimethylamino)-3H-imidazo[4,5-c]pyridin-2-yl)vinyl)-2,5-dimethyl-1H-pyrrol-1-yl)-5-methylthiophene-3-carbonitrile]"
12,5 to 20,"Cc1nn(-c2ccccc2)c(C)c1/C=C(\C#N)c1nc2ccccc2[nH]1 [AB24284, (E)-2-(1H-benzo[d]imidazol-2-yl)-3-(3,5-dimethyl-1-phenyl-1H-pyrazol-4-yl)acrylonitrile]"
13,0.1 to 1,"COc1cc2nc(/C(C#N)=C/c3cc(C)n(-c4sc(C(C)C)cc4C#N)c3C)[nH]c2cn1 [AB24325, (E)-2-(3-(2-cyano-2-(6-methoxy-3H-imidazo[4,5-c]pyridin-2-yl)vinyl)-2,5-dimethyl-1H-pyrrol-1-yl)-5-isopropylthiophene-3-carbonitrile]"
14,1 to 5,"COc1cc2[nH]c(/C(C#N)=C/c3cc(C)n(-c4oc(C)c(C)c4C#N)c3C)nc2cc1F [AB24246, (E)-2-(3-(2-cyano-2-(5-fluoro-6-methoxy-1H-benzo[d]imidazol-2-yl]vinyl)-2,5-dimethyl-1H-pyrrol-1-yl)-4,5-dimethylfuran-3-carbonitrile]"
15,1 to 5,"COc1ccc2nc(/C(C#N)=C/c3cc(C)n(-c4oc(C)c(C)c4C#N)c3C)[nH]c2n1 [AB24281, (E)-2-(3-(2-cyano-2-(5-methoxy-3H-imidazo[4,5-b]pyridin-2-yl)vinyl)-2,5-dimethyl-1H-pyrrol-1-yl)-4,5-dimethylfuran-3-carbonitrile]"
16,1 to 5,"Cc1oc(-n2c(C)cc(/C=C(\C#N)c3nc4ccc(CO)cc4[nH]3)c2C)c(C#N)c1C [AB24225, (E)-2-(3-(2-cyano-2-(6-(hydroxymethyl)-1H-benzo[d]imidazol-2-yl)vinyl)-2,5-dimethyl-1H-pyrrol-1-yl)-4,5-dimethylfuran-3-carbonitrile]"
17,0.1 to 1,"COC(=O)c1c(-n2c(C)cc(/C=C(\C#N)c3nc4ccccc4[nH]3)c2C)sc(C)c1C [AB24273, methyl (E)-2-(3-(2-(1H-benzo[d]imidazol-2-yl)-2-cyanovinyl)-2,5-dimethyl-1H-pyrrol-1-yl)-4,5-dimethylthiophene-3-carboxylate]"
18,< 0.1,"COc1cc2nc(/C(C#N)=C/c3cc(C)n(-c4sc(C)c(C)c4C#N)c3C)[nH]c2cn1 [AB24308, (E)-2-(3-(2-cyano-2-(6-methoxy-3H-imidazo[4,5-c]pyridin-2-yl)vinyl)-2,5-dimethyl-1H-pyrrol-1-yl)-4,5-dimethylthiophene-3-carbonitrile]"
19,0.1 to 1,"COc1cc2nc(/C(C#N)=C(\C)c3cc(C)n(-c4sc(C)cc4C#N)c3C)[nH]c2cn1 [AB24347, (E)-2-(3-(1-cyano-1-(6-methoxy-3H-imidazo[4,5-c]pyridin-2-yl)prop-1-en-2-yl)-2,5-dimethyl-1H-pyrrol-1-yl)-5-methylthiophene-3-carbonitrile]"
20,5 to 20,"Cc1nn(-c2ccccc2OC(F)(F)F)c(C)c1/C=C(\C#N)c1nc2ccccc2[nH]1 [AB24290, (E)-2-(1H-benzo[d]imidazol-2-yl)-3-(3,5-dimethyl-1-(2-(trifluoromethoxy)phenyl)-1H-pyrazol-4-yl)acrylonitrile]"
21,5 to 20,"COc1ccc2c(c1)[nH]c1cc(-c3cc(C)n(-c4sc(C)cc4C#N)c3C)c(C)cc12 [AB24374, 2-(3-(7-methoxy-3-methyl-9H-carbazol-2-yl)-2,5-dimethyl-1H-pyrrol-1-yl)-5-methylthiophene-3-carbonitrile]"
22,0.1 to 1,COC(=O)c1c(-n2c(C)cc(/C=C(\C#N)c3nc4cc(OC)ncc4[nH]3)c2C)sc(C)c1C [AB24316]
23,1 to 5,"Cc1oc(-n2c(C)cc(/C=C(\C#N)c3nc4cc5c(cc4[nH]3)OCCO5)c2C)c(C#N)c1C [AB24287, (E)-2-(3-(2-cyano-2-(6,7-dihydro-1H-[1,4]dioxin[2′,3′: 4,5]benzo[1,2-d]imidazol-2-yl)vinyl)-2,5-dimethyl-1H-pyrrol-1-yl)-4,5-dimethylfuran-3-carbonitrile]"
24,< 0.1,"COc1cc2nc(/C(C#N)=C/c3cc(C)n(-c4sc(C5CC5)cc4C#N)c3C)[nH]c2cn1 [AB24324, (E)-2-(3-(2-cyano-2-(6-methoxy-3H-imidazo[4,5-c]pyridin-2-yl)vinyl)-2,5-dimethyl-1H-pyrrol-1-yl)-5-cyclopropylthiophene-3-carbonitrile]"
25,5 to 20,Cc1csc(-n2c(C)cc(/C=C(\C#N)c3nc4ccccc4[nH]3)c2C)c1C#N [AB24277]
26,< 0.1,"Cc1cc(C#N)c(-n2c(C)cc(/C=C(\C#N)c3nc4cc(Cl)ncc4[nH]3)c2C)s1 [AB24341, (E)-2-(3-(2-(6-chloro-3H-imidazo[4,5-c]pyridin-2-yl)-2-cyanovinyl)-2,5-dimethyl-1H-pyrrol-1-yl)-5-methylthiophene-3-carbonitrile]"
27,0.1 to 1,"COc1cc2nc(/C(C#N)=C/c3cc(C)n(-c4sc(Cc5ccccc5)cc4C#N)c3C)[nH]c2cn1 [AB24328, (E)-5-benzyl-2-(3-(2-cyano-2-(6-methoxy-3H-imidazo[4,5-c]pyridin-2-yl)vinyl)-2,5-dimethyl-1H-pyrrol-1-yl)thiophene-3-carbonitrile]"
